This note sets out measurements from the supplement of paper PMC10331698.

± gives the standard deviation of the averaged measurements.

Experiment in all cases: level (log10 ratio to DMSO vehicle control); higher = higher biomarker level / cell amount than vehicle control
Compound in assay [1]: C=C(C)C(=O)OCCC(F)(F)C(F)(F)C(F)(F)C(F)(F)C(F)(C(F)(F)F)C(F)(F)F [(Perfluoro-5-methylhexyl)ethyl 2-methylprop-2-enoate]
The conditions noted are these: in DMSO. How it is done: (§1)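 BioMAP Diversity Plus panel of 12 human primary cell co-culture systems (3C, 4H, LPS, SAg, BT, BF4T, BE3C, CASM3C, HDF3CGF, KF3CT, MyoF, Mphg). Compounds were added 1 h before stimulation and left for 24 h (MyoF 48 h; BT 72 h for soluble read-outs or 6 d for IgG). Biomarkers were read by ELISA, cytotoxicity by SRB, PBMC viability and proliferation by Alamar Blue. Each well value was divided by the mean of 8 DMSO control wells on the same plate and log10 transformed; duplicate blinded samples were tested at 4 concentrations.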

Compound in assay [2]: C=CC(F)(F)C(F)(F)C(F)(F)C(F)(F)C(F)(F)C(F)(F)C(F)(F)C(F)(F)C=C [1,8-Divinylperfluorooctane]
The following applies: in DMSO. How it is done: as §1

Compound in assay [3]: FC(F)(F)C(F)(F)C(F)(F)C(F)(F)C(F)(F)C(F)(F)C(F)(F)C(F)(F)CCS [2-(Perfluorooctyl)ethanthiol]
The following applies: in DMSO. As for the experimental part:
as §1

Compound in assay [4]: FC(F)C(F)(F)COCC1CO1 [((2,2,3,3-Tetrafluoropropoxy)methyl)oxirane]
The conditions noted are these: in DMSO. How it is done: as §1

Compound in assay [5]: NCC(F)(F)C(F)(F)C(F)(F)C(F)(F)C(F)(F)C(F)(F)C(F)(F)F [1H,1H-Perfluorooctylamine]
The conditions noted are these: in DMSO. How it is done: as §1

Compound in assay [6]: O=C(O)C(F)(F)C(F)(F)C(F)(F)C(F)(F)C(F)(F)C(F)(F)C(F)(F)C(F)F [9-H-Perfluorononanoic acid]
The following applies: in DMSO. As for the experimental part: as §1

Compound in assay [7]: O=C(O)C(F)(F)C(F)(F)C(F)(F)OC(F)(C(F)(F)F)C(F)(F)F [Perfluoro-4-isopropoxybutanoic acid]
The following applies: in DMSO. How it is done: as §1

Compound in assay [8]: OCCCC(F)(F)C(F)(F)C(F)(F)C(F)(F)C(F)(F)C(F)(F)C(F)(F)F [7:3 Fluorotelomer alcohol]
The conditions noted are these: 6700 nM; in DMSO. How it is done: as §1

For KF3CT:CXCL10/IP-10, the “level (log10)” value in assay [1] (6700 nM) was -0.0085 ± 0.012; in assay [1] (20000 nM) it was -0.0325 ± 0.00071; in assay [2] (6700 nM) it was -0.001 ± 0.018; in assay [2] (20000 nM), -0.0135 ± 0.005; in assay [3] (6700 nM) it was -0.025 ± 0.0042; in assay [3] (20000 nM) it was -0.01 ± 0.0057. Moreover, the “level (log10)” value in assay [4] (6700 nM) was -0.002 ± 0.0028; in assay [4] (20000 nM), -0.0005 ± 0.0035; in assay [4] (60000 nM), -0.0015 ± 0.022; in assay [5] (6700 nM) it was -0.0045 ± 0.00071; in assay [5] (20000 nM), -0.0075 ± 0.011; in assay [5] (60000 nM), -0.003. The “level (log10)” value in assay [6] (6700 nM) was -0.0155 ± 0.0021; in assay [6] (20000 nM), -0.0265 ± 0.0064; in assay [6] (60000 nM), -0.039 ± 0.0099; in assay [7] (6700 nM), 0.019 ± 0.034; in assay [7] (20000 nM), 0.017 ± 0.023; in assay [7] (60000 nM), 0.0235 ± 0.043. Also, the “level (log10)” value in assay [8] was 0.01 ± 0.0042.
For KF3CT:IL-1alpha, the “level (log10)” value is -0.014 ± 0.0028 in assay [1] (6700 nM); -0.0225 ± 0.0035 in assay [1] (20000 nM); -0.0455 ± 0.013 in assay [2] (6700 nM); -0.0075 ± 0.057 in assay [2] (20000 nM); -0.0065 ± 0.026 in assay [3] (6700 nM); -0.009 ± 0.0042 in assay [3] (20000 nM). For the same test system, the “level (log10)” value in assay [4] (6700 nM) was 0.006 ± 0.011; in assay [4] (20000 nM), -0.0085 ± 0.013; in assay [4] (60000 nM), 0.0055 ± 0.039; in assay [5] (6700 nM), -0.0225 ± 0.0035; in assay [5] (20000 nM), -0.001 ± 0.013; in assay [5] (60000 nM), -0.0095 ± 0.0021. Further, the “level (log10)” value in assay [6] (6700 nM) was 0.006 ± 0.0071; in assay [6] (20000 nM) it was -0.0195 ± 0.012; in assay [6] (60000 nM) it was -0.039 ± 0.035; in assay [7] (6700 nM), 0.0225 ± 0.019; in assay [7] (20000 nM), 0.0165 ± 0.0035; in assay [7] (60000 nM) it was 0.014 ± 0.025. In assay [8], the “level (log10)” value was -0.0135 ± 0.011.
Consider KF3CT:MMP-9, for which the “level (log10)” value in assay [1] (6700 nM) was -0.0045 ± 0.037; in assay [1] (20000 nM), -0.027 ± 0.041; in assay [2] (6700 nM), -0.0395 ± 0.028; in assay [2] (20000 nM) it was -0.029 ± 0.018; in assay [3] (6700 nM), -0.029 ± 0.035; in assay [3] (20000 nM), -0.0275 ± 0.037. For the same test system, the “level (log10)” value in assay [4] (6700 nM) was 0.0085 ± 0.0064; in assay [4] (20000 nM), -0.005 ± 0.011; in assay [4] (60000 nM), 0.012 ± 0.011; in assay [5] (6700 nM), 0.0085 ± 0.0092; in assay [5] (20000 nM), 0.0025 ± 0.0035; in assay [5] (60000 nM), 0.0065 ± 0.005. The “level (log10)” value is -0.05 ± 0.013 in assay [6] (6700 nM); 0.004 ± 0.0014 in assay [6] (20000 nM); 0.0475 ± 0.011 in assay [6] (60000 nM); 0.0055 ± 0.0035 in assay [7] (6700 nM); 0.022 ± 0.02 in assay [7] (20000 nM); 0.078 ± 0.014 in assay [7] (60000 nM). Moreover, in assay [8], the “level (log10)” value is -0.019 ± 0.018.
